Structures can show the parent of a compound that is named as a salt.
Tests used:
[1] = tested on: T1, α-1-Acid glycoprotein (AGP, orosomucoid); assay: intrinsic protein fluorescence quenching, Klotz plot; type: binding, Homo sapiens; settings: λex 295 nm (Trp); pH 7.4, 0.05 M phosphate, 298 K; unit misprinted in table, L/mol by b49
T1 construct: gene ORM1
Source text: intrinsic protein fluorescence quenching, Klotz plot on α-1-Acid glycoprotein (AGP, orosomucoid)

[2] = biological target: T2, Human serum albumin (HSA) (Homo sapiens, UniProt P02768); assay: as above; type: binding; settings: λex 295 nm (Trp); pH 7.4, 0.05 M phosphate, 298 K; unit misprinted in table, L/mol by b49
T2 construct: gene ALB
Source text: intrinsic protein fluorescence quenching, Klotz plot on Human serum albumin (HSA)

T2 sequence (P02768 25-609): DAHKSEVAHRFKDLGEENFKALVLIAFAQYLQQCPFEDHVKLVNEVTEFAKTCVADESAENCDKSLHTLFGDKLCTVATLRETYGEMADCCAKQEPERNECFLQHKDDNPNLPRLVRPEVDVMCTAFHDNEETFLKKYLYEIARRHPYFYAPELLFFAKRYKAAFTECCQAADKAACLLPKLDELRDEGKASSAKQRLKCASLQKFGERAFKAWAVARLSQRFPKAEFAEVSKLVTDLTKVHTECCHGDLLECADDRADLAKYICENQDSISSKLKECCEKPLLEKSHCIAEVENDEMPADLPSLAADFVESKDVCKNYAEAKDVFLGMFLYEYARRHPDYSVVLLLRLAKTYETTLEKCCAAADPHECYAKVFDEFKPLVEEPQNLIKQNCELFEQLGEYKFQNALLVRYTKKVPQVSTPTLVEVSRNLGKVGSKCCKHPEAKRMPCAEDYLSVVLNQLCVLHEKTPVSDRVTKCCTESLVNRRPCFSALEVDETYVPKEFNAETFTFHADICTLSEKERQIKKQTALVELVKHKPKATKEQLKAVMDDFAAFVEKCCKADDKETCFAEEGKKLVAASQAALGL

λex 295 nm / (Ka. 10^4) ±SD * (mol.L^-1) [2]: 2.71 ± 0.01 ·10^4
SMILES: C[n+]1cc2c(c3ccccc31)Nc1ccccc1S2 [Salt1, 5-methyl-12(H)-chino[3,4-b][1,4]benzothiazinium chloride]
λex 295 nm / (Ka. 10^4) ±SD * (mol.L^-1) [1]: 7.86 ± 0.03 ·10^4

Reference: publication PMC8401767, “Spectroscopic Studies of Quinobenzothiazine Derivative in Terms of the In Vitro Interaction with Selected Human Plasma Proteins. Part 1” (Molecules, 2021)
